Results taken from EP1733731A1, “New uses of Glycerol derivatives in particular in cosmetics” (AGRO INDUSTRIE RECHERCHES ET DEVELOPPEMENTS (A.R.D.), priority 2005, dated 2006).

Molecular target: T1, MMP-2 (Homo sapiens, UniProt P08253)
T1 construct: La proMMP-2 recombinante (12,5 ng/mL) est activée par l'APMA 10 mM pendant 16 heures à 4°C
T1 sequence (P08253 110-660): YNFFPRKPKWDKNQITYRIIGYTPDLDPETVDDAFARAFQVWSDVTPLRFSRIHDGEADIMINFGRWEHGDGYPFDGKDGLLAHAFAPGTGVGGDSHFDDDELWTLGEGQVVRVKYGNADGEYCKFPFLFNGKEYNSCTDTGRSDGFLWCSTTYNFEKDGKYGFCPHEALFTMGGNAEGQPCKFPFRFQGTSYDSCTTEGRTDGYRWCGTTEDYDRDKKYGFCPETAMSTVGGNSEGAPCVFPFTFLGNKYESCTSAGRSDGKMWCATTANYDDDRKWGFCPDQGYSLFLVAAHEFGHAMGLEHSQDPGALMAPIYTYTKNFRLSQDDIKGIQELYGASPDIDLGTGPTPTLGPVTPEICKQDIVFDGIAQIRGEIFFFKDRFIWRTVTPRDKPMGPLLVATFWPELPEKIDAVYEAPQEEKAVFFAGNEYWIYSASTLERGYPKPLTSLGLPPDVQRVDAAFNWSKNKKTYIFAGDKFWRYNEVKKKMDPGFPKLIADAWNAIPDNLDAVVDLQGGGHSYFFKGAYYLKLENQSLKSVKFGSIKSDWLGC
Assay: MMP-2 activity on fluorescent synthetic substrate
Assay type: biochemical
Conditions: 25 µg/mL
From the text: L'inhibition de l'activité des gélatinases MMP-2 et MMP-9 par les acides gras insaturés à longue chaîne a pu être montré sur des coupes de peau. Ce phénomène implique à la fois des domaines spécifiques des gélatinases : les "Collagen Binding Domain" (CBD) et la double liaison des acides gras. L'interaction entre les gélatinases, via ces sites particuliers que sont les exosites (CBD), et l'acide gras, via son insaturation, entraîne une perte d'activité des gélatinases in vitro comme in vivo. La présence de double liaisons au niveau des chaînes latérales de ces glycolipides a conduit à cribler l'ensemble des composés de l'invention sur l'activité de la gélatinase-A ou MMP-2, car cette enzyme, bien qu'elle ne soit pas surexprimée au cours des vieillissements par les cellules dermiques, participe à la dégradation du tissu élastique responsable de la formation de rides. […]
La proMMP-2 recombinante (12,5 ng/mL) est activée par l'APMA 10 mM pendant 16 heures à 4°C puis préincubée 10 min en présence des différentes fractions et composés à tester : le substrat synthétique spécifique de la MMP-2 (Référence : M-1895, Bachem) est ensuite ajouté, à la concentration de 2 µM. Le clivage de ce substrat est estimé par mesure de la fluorescence émise après clivage (λexc = 326 nm; λem = 465 nm), à raison d'une lecture toutes les 2 minutes pendant 30 minutes. […]

MMP-2 (Vi/Vo): > 1
SMILES: CCCCC/C=C\C/C=C\CCCCCCCCOC[C@H](CO[C@@H]1O[C@H](COC(=O)CCCCCCCCCCCCCCC)[C@H](O)[C@H](O)[C@H]1O)OCCCCCCCC/C=C\C/C=C\CCCCC [ED23-11, 1,2-di-O-linoléyl-3-O-[6'-O-palmitoyl-β-D-galactopyranosyl]-sn-glycérol]
